One experiment concerns GTP-bound KRAS. Kind of experiment: RAS-binding domain pull-down (RBD:PD) assay. The settings on record: H358 cells, 24 h, 50 and 100 μM. The class given is cell-based. As for the experimental part: RAS activity was detected using the RAS Activation Assay Kit from Upstate-Millipore. The whole cell lysates were incubated with Glutathione S-transferase-[…]-binding domain (GST-RBD) and glutathione beads for 1 h. Agarose beads were pelleted by centrifugation and washed 3 times with Mg^2+ lysis buffer. Agarose beads were re-suspended in loading buffer. Samples were analyzed by the western blotting as previously described and blots probed using anti-KRAS antibody (sc-30, SANTA).
KRAS mutant cells (H358) were treated with compound 0375-0604 for 24 h. After 24 h treatment, cells were collected and determined by a RAS-binding domain pull-down (RBD:PD) assay and immunoblotting with a KRAS-specific antibody.

Experiment [1] concerns H358 cells. Kind of experiment: Cell cycle analysis by PI staining and flow cytometry. The class given is cell-based. The note with it: H358 cells, 50, 100 μM, 24 h. As for the experimental part: H358 cells were plated with 2.0×10^5 cells/well at a 6-well plate and cultured overnight for attachment. After treatment with compound 0375-0604 at 0, 50, 100 μM for 24 h, all cells were harvested by trypsin, and centrifuged at 1000 rpm, at room temperature for 5 min. Cells pellets were re-suspended in 70% ethanol at 4° C. for 30 min. Cells were centrifuged at 1000 rpm for 5 min to remove all the ethanol. Each cell pellet was re-suspended in 300 μL Propidium iodide (PI) staining solution at 37° C. for 30 min in the dark. The cells were then washed twice with phosphate-buffered saline (PBS). Finally, cells were re-suspended in 300 μL PBS and transferred to the flow cytometer (BD FACS Aria III).
H358 cells were treated with compound 0375-0604 at different concentrations (0, 50, 100 μM) for 24 h, and stained with Propidium iodide (PI). The samples were analyzed by flow cytometry.

In experiment [2] the test system is H358 cells. Kind of experiment: MTT cell viability assay, H358. The class given is cell-based. The settings on record: Homo sapiens, NCI-H358, H358 (KRAS G12C). As for the experimental part: (§1) H2122, H460 and H358 cells were purchased from ATCC and cultivated with Roswell Park Memorial Institute (RPMI) 1640 medium supplemented with 10% fetal bovine serum (Gibco, Big Cabin, Oklahoma, Me., USA), 100 U/mL penicillin and 100 μg/mL streptomycin (Gibco, Big Cabin, Oklahoma, Me., USA). All the cells were cultivated at 37° C. with 5% CO2 incubator. Cells were seeded on a 96-well microplate with 3000, 4000 or 5000 cells/well, and were cultured overnight for cell adhesion. Different concentrations of compound 0375-0604 were added to the microplates, and the plates were incubated for 24, 48 or 72 h. Each dosage was repeated as triplicate. 10 μL MTT (5 mg/mL) solution was added to every well. After incubation for 4 h, 100 μL dimethyl sulfoxide (DMSO) was added to each well. After shaking for 15 min, the absorbance of the plate was measured at 570 nm (absorbance) and 650 nm (reference) by a microplate reader (Tecan, Morrisville, N.C., USA).
(§2) The cytotoxicity of compound 0375-0604 was determined by MTT assay. The effect of compound 0375-0604 on three NSCLC cell lines, H2122, H358 and H460 was examined. H2122, H358 and H460 are harboring KRAS-activating mutations. H2122 and H358 cells have mutant KRAS that includes an amino acid substitution from a glycine to a cysteine at codon or position 12 (i.e. mutant KRAS ^G12C). H460 cells have mutant KRAS that includes an amino acid substitution from a glutamine to a histidine at codon or position 61 (i.e. mutant KRAS Q61H).
(§3) Cells were incubated with compound 0375-0604 at different concentrations (0, 25, 50, 100 μM) for 24, 48, and 72 h. As shown in FIGS. 3A-3C, the cell viability of three NSCLC cell lines was decreased by the treatment of compound 0375-0604 in a dose-dependent and time-dependent manner.

Experiment [3] deals with phosphorylation of CRAF (p-CRAF). Kind of experiment: Western blot of KRAS downstream signaling. The class given is cell-based. The settings on record: H2122, H460 and H358 cells, 24, 48 and 72 h, versus untreated cells. On the procedure:
After treatment with compound 0375-0604 for 24 h, 48 h or 72 h, radioimmunoprecipitation assay (RIPA) lysis buffer which contains protease and phosphatase inhibitors, was added to extract the whole cell protein. Bio-Rad DC™ protein assay kit (Bio-Rad, Philadelphia, Pa., USA) was used to quantify the protein. 30 μg protein lysate were loaded and separated by 10% sodium dodecyl sulfate (SDS)-polyacrylamide gel electrophoresis and transferred to a nitrocellulose (NC) membrane. The membranes were incubated with the primary antibody (1:2000) and then with a fluorescence-conjugated secondary antibody (1:10000). Glyceraldehyde 3-phosphate dehydrogenase (GAPDH) was used as the loading control for normalization. The signal of the membranes was scanned with a LI-COR Odyssey Scanner (Belfast, Me., USA).
Untreated cells were used as control.

The next experiment relates to H460 cells. Nature of the experiment: MTT cell viability assay, H460. It is filed as cell-based. The settings on record: Homo sapiens, NCI-H460, H460 (KRAS Q61H). On the procedure:
as §1, §2, §3

The subject of a further experiment is H2122 cells. Kind of experiment: MTT cell viability assay, H2122. The class given is cell-based. The note with it: Homo sapiens, NCI-H2122, H2122 (KRAS G12C). As for the experimental part:
as §1, §2, §3

Another experiment deals with KRAS (Homo sapiens, UniProt P01116). Kind of experiment: Bio-layer interferometry, His-KRAS on Ni-NTA biosensors. The class given is binding. The settings on record: BLI. On the procedure:
The interaction between KRAS and compound 0375-0604 was determined by bio-layer interferometry using an Octet Red 96 instrument (FortéBio Inc.). Ni-NTA Biosensors tips (FortéBio, Inc., Menlo Park, Calif.) were prewetted with PBS to establish a baseline before immobilization. His-KRAS was then immobilized onto Ni-NTA Biosensors. The experiments comprised five steps: (1) baseline acquisition, (2) KRAS loading onto the sensor, (3) second baseline acquisition, (4) association of compound 0375-0604 for the measurement of kon, and (5) dissociation of compound 0375-0604 for the measurement of koff. Six concentrations of compound 0375-0604 were used for detection. The association and dissociation plot and kinetic constants were obtained with FortéBio data analysis software. Equilibrium dissociation constants (Kd) were calculated in the ratio of koff to kon.
Bio-layer interferometry assay (BLI), a label-free technology, was used to measure the biomolecular interaction between KRAS and compound 0375-0604. In this study, the His-labeled KRAS protein was immobilized on the Ni-NTA (NTA) Biosensors. […] Experimental data for association and dissociation are represented on the left and right side.

The structures appear in SMILES notation. Some results are limits rather than exact numbers.

Sequence of KRAS (P01116 1-188 isoform P01116-2): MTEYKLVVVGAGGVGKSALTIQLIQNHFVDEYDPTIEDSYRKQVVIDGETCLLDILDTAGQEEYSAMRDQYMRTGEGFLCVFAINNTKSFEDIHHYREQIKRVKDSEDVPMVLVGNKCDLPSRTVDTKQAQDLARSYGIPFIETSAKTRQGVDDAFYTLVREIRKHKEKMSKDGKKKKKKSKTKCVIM

For the molecule `Nc1ccc(Sc2nc3ccccc3s2)c(Cl)c1` [compound 0375-0604], in the experiment with GTP-bound KRAS, the “level of GTP-bound KRAS” value was “inhibited”. Moreover, the “percentage of cells in G0/G1 phase” value with H358 cells [1] is given as “slightly decreased”. Moreover, the “percentage of cells in G2/M phase” value with H358 cells [1] was “increased”. Besides, the 50% inhibitory concentration (IC50) in the experiment on H358 cells [2] (24 h) was more than 100 µM; in the experiment with H358 cells [2] (48 h), more than 100 µM; with H358 cells [2] (72 h) it was 63.8 ± 3.89 µM; in the experiment on H460 cells (24 h), more than 100 µM; in the experiment with H460 cells (48 h), 100 ± 13.3 µM; in the experiment on H460 cells (72 h), 66 ± 11.8 µM. For the same molecule, the results for the half-inhibitory concentration (IC50) in the experiment with H2122 cells (24 h), in the experiment with H2122 cells (48 h) and in the experiment with H2122 cells (72 h) were more than 100 µM, more than 100 µM and 39.6 ± 3.09 µM, respectively. The “level of phosphorylation of CRAF (p-CRAF)” value in experiment [3] is “decreased”. This molecule had a koff at KRAS (1.56-50 μM compound) of 2.12E-01 S^−1. For the same molecule, the kon on KRAS (1.56-50 μM compound) came to 1.83E+04 M^−1 S^−1. Also, the Kd on KRAS (calculated as ratio of koff to kon) is 11.6 µM.

Values taken from patent publication US9884046B1, “Method of treating lung cancer” (Macau University of Science and Technology, priority 2017, dated 2018).
